Source: patent US20260022246A1, “COLORING AGENT COMPOSITION, FILM, OPTICAL FILTER, AND NEAR INFRARED ABSORBING COMPOUND” (FUJIFILM Corporation, priority 2023, published 2026)

How the values were obtained:
Type in all cases: physicochemical
[1] = Evaluation of absorption spectrum (maximal absorption wavelength in chloroform solution); conditions: for Near infrared absorbing property: grade of λmax in chloroform solution; for λmax (maximal absorption wavelength): chloroform solution, 3.0×10^−5 mol/L, 1 mm quartz cell
Procedure: The specific compound is diluted with chloroform to a concentration of […], and an absorbance of the obtained sample solution is measured with a spectrophotometer (UV-3600 Plus, manufactured by Shimadzu Corporation) using a 1 mm quartz cell. A maximal absorption wavelength (Amax) is measured from an absorption spectrum of the sample solution.
For each of Exemplary Compounds shown in Tables 1 and 2, a sample solution was prepared by diluting the compound with chloroform to a concentration of 3.0×10^−5 mol/L, and near infrared absorbability was evaluated.
For each sample solution, an absorbance was measured in a 1 mm quartz cell using a spectrophotometer (UV-3600 Plus, manufactured by Shimadzu Corporation).
A maximal absorption wavelength (Amax) was measured from the absorption spectrum of each sample solution. The results are shown in Tables 1 and 2, and the wavelength of Amax was evaluated according to the following standard.
• A: Amax was 1,150 nm or more. • B: Amax was less than 1,150 nm.

[2] = Evaluation of solubility in methyl ethyl ketone (MEK); conditions: stirred at room temperature for 30 minutes
Procedure: For each of Exemplary Compounds shown in Tables 1 and 2, a predetermined amount of the compound was added to a solvent of methyl ethyl ketone (MEK), and solubility was evaluated according to the following standard by stirring the mixture at room temperature for 30 minutes.
• A: 1 g or more of the compound was stably dissolved in 300 g of MEK. • B: 1 g was not dissolved in 300 g of MEK. • X: decomposition was observed by measuring the absorption spectrum after the dissolution.

[3] = Evaluation of heat stability of polystyrene resin film (hot plate 180° C., 5 minutes); conditions: polystyrene resin film on glass, hot plate 180° C. for 5 minutes, absorbance reduction rate at λmax
Procedure: 30 mg of each of Exemplary Compounds and the comparative compounds described in the tables was dissolved in 8.9 g of methyl ethyl ketone and 1.1 g of a polystyrene resin (manufactured by Sigma-Aldrich Co. LLC) to prepare a resin composition.
The obtained resin composition was spin-coated on a glass substrate to form a coating film, and the obtained coating film was dried at 60° C. for 2 minutes to produce a resin film. […]
• A: absorbance reduction rate of Amax was less than 5%. • B: absorbance reduction rate of Amax was 5% or more and less than 10%. • C: absorbance reduction rate of Amax was 10% or more and less than 50%. • D: absorbance reduction rate of Amax was 50% or more. • X: solubility was insufficient, so that the film cannot be produced, which was not evaluable.

| λmax (maximal absorption wavelength) [1] | SMILES | Near infrared absorbing property [1] | Solubility in solvent [2] | Heat stability of resin composition [3] |
| --- | --- | --- | --- | --- |
| – | Cc1ccc(N(c2ccc(C)cc2)c2ccc([N+](=C3C=CC(=[N+](c4ccc(N(c5ccc(C)cc5)c5ccc(C)cc5)cc4)c4ccc(N(c5ccc(C)cc5)c5ccc(C)cc5)cc4)C=C3)c3ccc(N(c4ccc(C)cc4)c4ccc(C)cc4)cc3)cc2)cc1 [A-1] | A (Amax was 1,150 nm or more) | A (1 g or more of the compound was stably dissolved in 300 g of MEK) | A (absorbance reduction rate of Amax was less than 5%) |
| – | Cc1cc(C)c(N(c2ccc([N+](=C3C=CC(=[N+](c4ccc(N(c5c(C)cc(C)cc5C)c5c(C)cc(C)cc5C)cc4)c4ccc(N(c5c(C)cc(C)cc5C)c5c(C)cc(C)cc5C)cc4)C=C3)c3ccc(N(c4c(C)cc(C)cc4C)c4c(C)cc(C)cc4C)cc3)cc2)c2c(C)cc(C)cc2C)c(C)c1 [A-3] | A (Amax was 1,150 nm or more) | A (1 g or more of the compound was stably dissolved in 300 g of MEK) | A (absorbance reduction rate of Amax was less than 5%) |
| 1248 nm | COc1ccc(N(c2ccc(OC)cc2)c2ccc([N+](=C3C=CC(=[N+](c4ccc(N(c5ccc(OC)cc5)c5ccc(OC)cc5)cc4)c4ccc(N(c5ccc(OC)cc5)c5ccc(OC)cc5)cc4)C=C3)c3ccc(N(c4ccc(OC)cc4)c4ccc(OC)cc4)cc3)cc2)cc1.[O-][Cl+3]([O-])([O-])[O-].[O-][Cl+3]([O-])([O-])[O-] [A-6] | A (Amax was 1,150 nm or more) | A (1 g or more of the compound was stably dissolved in 300 g of MEK) | A (absorbance reduction rate of Amax was less than 5%) |
| 1162 nm | FC(F)(F)c1ccc(N(c2ccc([N+](=C3C=CC(=[N+](c4ccc(N(c5ccc(C(F)(F)F)cc5)c5ccc(C(F)(F)F)cc5)cc4)c4ccc(N(c5ccc(C(F)(F)F)cc5)c5ccc(C(F)(F)F)cc5)cc4)C=C3)c3ccc(N(c4ccc(C(F)(F)F)cc4)c4ccc(C(F)(F)F)cc4)cc3)cc2)c2ccc(C(F)(F)F)cc2)cc1.[O-][Cl+3]([O-])([O-])[O-].[O-][Cl+3]([O-])([O-])[O-] [A-7] | A (Amax was 1,150 nm or more) | A (1 g or more of the compound was stably dissolved in 300 g of MEK) | A (absorbance reduction rate of Amax was less than 5%) |
| 1210 nm | CCCCc1ccc(N(c2ccc(CCCC)cc2)c2ccc([N+](=C3C=CC(=[N+](c4ccc(N(c5ccc(CCCC)cc5)c5ccc(CCCC)cc5)cc4)c4ccc(N(c5ccc(CCCC)cc5)c5ccc(CCCC)cc5)cc4)C=C3)c3ccc(N(c4ccc(CCCC)cc4)c4ccc(CCCC)cc4)cc3)cc2)cc1.[O-][Cl+3]([O-])([O-])[O-].[O-][Cl+3]([O-])([O-])[O-] [A-8] | A (Amax was 1,150 nm or more) | A (1 g or more of the compound was stably dissolved in 300 g of MEK) | A (absorbance reduction rate of Amax was less than 5%) |
| 1170 nm | N#Cc1ccc(N(c2ccc(C#N)cc2)c2ccc([N+](=C3C=CC(=[N+](c4ccc(N(c5ccc(C#N)cc5)c5ccc(C#N)cc5)cc4)c4ccc(N(c5ccc(C#N)cc5)c5ccc(C#N)cc5)cc4)C=C3)c3ccc(N(c4ccc(C#N)cc4)c4ccc(C#N)cc4)cc3)cc2)cc1.[O-][Cl+3]([O-])([O-])[O-].[O-][Cl+3]([O-])([O-])[O-] [A-9] | A (Amax was 1,150 nm or more) | A (1 g or more of the compound was stably dissolved in 300 g of MEK) | A (absorbance reduction rate of Amax was less than 5%) |
| 1308 nm | COc1cc(C)c(N(c2ccc([N+](=C3C=CC(=[N+](c4ccc(N(c5c(C)cc(OC)cc5C)c5c(C)cc(OC)cc5C)cc4)c4ccc(N(c5c(C)cc(OC)cc5C)c5c(C)cc(OC)cc5C)cc4)C=C3)c3ccc(N(c4c(C)cc(OC)cc4C)c4c(C)cc(OC)cc4C)cc3)cc2)c2c(C)cc(OC)cc2C)c(C)c1.[O-][Cl+3]([O-])([O-])[O-].[O-][Cl+3]([O-])([O-])[O-] [A-22] | A (Amax was 1,150 nm or more) | A (1 g or more of the compound was stably dissolved in 300 g of MEK) | A (absorbance reduction rate of Amax was less than 5%) |
| 1232 nm | COC(=O)c1cccc(N(c2ccc([N+](=C3C=CC(=[N+](c4ccc(N(c5cccc(C(=O)OC)c5)c5cccc(C(=O)OC)c5)cc4)c4ccc(N(c5cccc(C(=O)OC)c5)c5cccc(C(=O)OC)c5)cc4)C=C3)c3ccc(N(c4cccc(C(=O)OC)c4)c4cccc(C(=O)OC)c4)cc3)cc2)c2cccc(C(=O)OC)c2)c1.[O-][Cl+3]([O-])([O-])[O-].[O-][Cl+3]([O-])([O-])[O-] [A-26] | A (Amax was 1,150 nm or more) | A (1 g or more of the compound was stably dissolved in 300 g of MEK) | A (absorbance reduction rate of Amax was less than 5%) |

| SMILES | λmax (maximal absorption wavelength) [1] | Near infrared absorbing property [1] | Solubility in solvent [2] | Heat stability of resin composition [3] |
| --- | --- | --- | --- | --- |
| N#Cc1ccc(N(c2ccc([N+](=C3C=CC(=[N+](c4ccc(N(c5ccc(C#N)c(F)c5)c5ccc(C#N)c(F)c5)cc4)c4ccc(N(c5ccc(C#N)c(F)c5)c5ccc(C#N)c(F)c5)cc4)C=C3)c3ccc(N(c4ccc(C#N)c(F)c4)c4ccc(C#N)c(F)c4)cc3)cc2)c2ccc(C#N)c(F)c2)cc1F [A-19] | 1165 nm | A (Amax was 1,150 nm or more) | A (1 g or more of the compound was stably dissolved in 300 g of MEK) | A (absorbance reduction rate of Amax was less than 5%) |
| Cc1ccc(N(c2ccc(C)cc2)c2ccc([N+](=C3C=CC(=[N+](c4ccc(N(c5ccc(C)cc5)c5ccc(C)cc5)cc4)c4ccc(N(c5ccc(C)cc5)c5ccc(C)cc5)cc4)C=C3)c3ccc(N(c4ccc(C)cc4)c4ccc(C)cc4)cc3)cc2)cc1 [A-28] | 1209 nm | A (Amax was 1,150 nm or more) | A (1 g or more of the compound was stably dissolved in 300 g of MEK) | A (absorbance reduction rate of Amax was less than 5%) |
| Cc1ccc(N(c2ccc(C)cc2)c2ccc([N+](=C3C=CC(=[N+](c4ccc(N(c5ccc(C)cc5)c5ccc(C)cc5)cc4)c4ccc(N(c5ccc(C)cc5)c5ccc(C)cc5)cc4)C=C3)c3ccc(N(c4ccc(C)cc4)c4ccc(C)cc4)cc3)cc2)cc1.F[B-](F)(F)F.F[B-](F)(F)F [A-29] | 1209 nm | A (Amax was 1,150 nm or more) | A (1 g or more of the compound was stably dissolved in 300 g of MEK) | A (absorbance reduction rate of Amax was less than 5%) |
| Cc1ccc(N(c2ccc(C)cc2)c2ccc([N+](=C3C=CC(=[N+](c4ccc(N(c5ccc(C)cc5)c5ccc(C)cc5)cc4)c4ccc(N(c5ccc(C)cc5)c5ccc(C)cc5)cc4)C=C3)c3ccc(N(c4ccc(C)cc4)c4ccc(C)cc4)cc3)cc2)cc1.F[P-](F)(F)(F)(F)F.F[P-](F)(F)(F)(F)F [A-30] | 1209 nm | A (Amax was 1,150 nm or more) | A (1 g or more of the compound was stably dissolved in 300 g of MEK) | A (absorbance reduction rate of Amax was less than 5%) |
| Cc1ccc(N(c2ccc(C)cc2)c2ccc([N+](=C3C=CC(=[N+](c4ccc(N(c5ccc(C)cc5)c5ccc(C)cc5)cc4)c4ccc(N(c5ccc(C)cc5)c5ccc(C)cc5)cc4)C=C3)c3ccc(N(c4ccc(C)cc4)c4ccc(C)cc4)cc3)cc2)cc1.O=S(=O)([C-](S(=O)(=O)C(F)(F)F)S(=O)(=O)C(F)(F)F)C(F)(F)F.O=S(=O)([C-](S(=O)(=O)C(F)(F)F)S(=O)(=O)C(F)(F)F)C(F)(F)F [A-34] | 1211 nm | A (Amax was 1,150 nm or more) | A (1 g or more of the compound was stably dissolved in 300 g of MEK) | A (absorbance reduction rate of Amax was less than 5%) |
